# Test results as given in patent US9314485B2, “Use of PI3K M-TOR and AKT inhibitors to induce FOXP3 expression and generate regulatory T cells” (Medical Research Council, priority 2006, dated 2016).
# Entries after “also recorded” stand apart in the source; their conditions may differ.
# What was measured:
# Format in all cases: cell-based, mouse
# Smad2 = Smad2 phosphorylation western blot; conditions: serum free medium, TGFβ 1 ng/ml 90 minutes, inhibitors 90 minutes or 8 hours
# Text: TGFβ is known as a powerful inducer of Foxp3 expression in conventional CD4 T cells in vitro and we therefore asked whether TGFβ mediates the induction of Foxp3 by TCR signal deprivation of newly activated T cells and PI3-K/mTOR inhibitors. Since cell culture medium supplemented with FCS contains TGFβ, we carried out the experiments described in this section in serum free lymphocyte culture medium (AIM-V, Invitrogen). […] The binding of TGFβ binding to ALK5 and TGFβ receptor II (TGFβRII) results in the phosphorylation of receptor-associated Smad2 and -3, which subsequently associate with co-Smads, translocate to the nucleus and act as transcriptional regulators. The phosphorylation of Smad proteins therefore provides a sensitive indicator of TGFβ signaling. Naive LN T cells were activated for 18 hours in serum free medium and then exposed to TGFβ (1 ng/ml) […], TCR signal deprivation, or TCR signal deprivation plus rapamycin and Ly294002. […] The blot was subsequently probed with anti Smad2/3 as a loading control.
# S6 ribosomal protein = S6 ribosomal protein phosphorylation (pS6) by intracellular staining/immunoblot; conditions: 18 h activated cells; rapamycin 25 nM, Ly294002 10 g/ml as printed; within one hour
# Method: Mouse strains, cell sorting and culture Animal work was carried out according the Animals (Scientific Procedures) Act, UK. Lymph node (LN) cells were stained, analysed and sorted by flow cytometry as described (Cobb et al 2005 J. Exp. Med. 201: 1367-1373). Intracellular staining for Foxp3 protein was done as advised by the manufacturers (eBiosciences.com). The phosphorylation syatus of S6 ribosomal protein was determined using anti pS6 Ser235/236 (Cellsignaling cat.no. 2211, http://www.cellsignal.com) using the eBioscience Foxp3 staining kit and anti rabbit IgG-FITC or IgG-Cy5 (Jackson Immunoresearch). […] CD4 T cell CFSE profiles were recorded between 48 and 72 hours later.
# To monitor the activity of the PI3K/mTOR axis in response to TCR signaling, TCR signal withdrawal and treatment with rapamycin and Ly294002, we analysed the level of phosphorylated S6 ribosomal protein (pS6), the target of p70 S6 kinase, which is directly regulated by mTOR. […]
# Mice, Cell Sorting and Culture. […] Lymph node (LN) cells or thymocytes from wild type were stained, analysed and sorted by flow cytometry as described (Thompson et al., 2007 Immunity VoI 26 pp 335-344) from wild type (C57BL/6, BALB/c or C57BL/6×129) mice or from Rag1 deficient H2^b AND TCR transgenic mice. […] CD4 T cell CFSE profiles were recorded between 48 and 72 hours later.
# Akt = test: pAkt (S473) immunoblot in activated CD4 T cells; conditions: 18 h activated T cells
# Method: To monitor the activity of the PI3K/mTOR axis in newly activated CD4 T cells we analysed phosphorylation of S6 ribosomal protein (pS6), a target of the mTOR-regulated p70 S6 kinase S6K1. TCR/CD28 signaling (but not anti-CD28 alone) induced high levels of pS6 (FIG. 10a). The maintenance of mTOR activity in 18 hour activated T cells required continued TCR signaling, since S6 phosphorylation declined when TCR signals were withdrawn (FIG. 10b). […] The serine/threonine protein kinase Akt/PKB is rapidly phosphorylated in response to signaling through TCR/CD28 but, in contrast to pS6, pAkt (S473) was no longer detected 18 h after initiation of TCR/CD28 signaling (FIG. 10c). […] Increased Akt phosphorylation in response to TCR signal deprivation and rapamycin treatment is incompatible with a traditional linear signaling pathway (FIG. 10d) but consistent with a network model in which Akt activity is controlled both by PDK1 and by mTORC2. In this model, mTORC2 (mTOR/rictor/Sin 1) is under negative feedback control of mTORC1 (mTOR/raptor) via S6K1, which phosphorylates and inhibits IRS1 (insulin receptor substrate 1) and reduces Akt activation via PI3K, PDK1 and mTORC2 (FIG. 10e). Applied to our data, withdrawal of TCR signaling lowers mTORC1 and S6K1 activity (FIG. 10b), which reduces feedback inhibition of mTORC2 and explains the observed increase in pAkt (S473) (FIG. 10c). […]
substance,measurement,setting,value
TGFβ,phosphorylation of Smad2 (pSmad2 S465/467),Smad2,readily detectable
same,phosphorylation of Smad2 (pSmad2 S465/467),Smad2; listed as TGF,strong phosphorylation of Smad2
same,S6 phosphorylation (pS6),S6 ribosomal protein,reduced pS6
same,pAkt (S473),Akt,reappeared; also recorded: increased pAkt S473
